This note sets out measurements from patent publication US11137686B2, “Material for forming underlayer film for lithography, composition for forming underlayer film for lithography, underlayer film for lithography and production method thereof, and resist pattern forming method” (Mitsubishi Gas Chemical Company, Inc., priority 2015, dated 2021).

The nature of series [1]: Thermal weight loss temperature (thermogravimetric measurement, TG). The following applies: heated to 500° C. at 10° C./min, nitrogen stream. The format is physicochemical. The procedure:
(Thermal Weight Loss Temperature)
An “EXSTAR 6000 […] apparatus” manufactured by SII NanoTechnology Inc. was used, and about 5 mg of a sample was placed in an unsealed aluminum container and heated to 500° C. at a rate of temperature rise of 10° C./min in a nitrogen gas (30 mL/min) stream. The 10% thermal weight loss temperature was here measured.

A short description of series [2]: Solubility in PGME and PGMEA at 23° C. The class given is physicochemical. The conditions noted are these: for solubility in PGME: 1-methoxy-2-propanol (PGME); for solubility in PGMEA: propylene glycol monomethyl ether acetate (PGMEA). The procedure:
The amount of each compound dissolved in 1-methoxy-2-propanol (PGME) and propylene glycol monomethyl ether acetate (PGMEA) was measured at 23° C., and the results were evaluated with respect to the solubility according to the following criteria.
Evaluation A: 20% by mass or more
Evaluation B: 10% by mass or more and less than 20% by mass
Evaluation C: less than 10% by mass

With `Oc1ccc2ccc3c(c2c1)C(c1ccc(I)cc1)c1c(ccc2ccc(O)cc12)O3` [B-2], the “10% thermal weight loss temperature” value in series [1] is no less than 400 °C. Also, in series [2], the “solubility in PGME” value was no less than 20 % by mass; the “solubility in PGME, Evaluation” value is “A (Evaluation A: 20% by mass or more)”; the “solubility in PGMEA, Evaluation” value was “A (Evaluation A: 20% by mass or more)”; the “solubility in PGMEA” value is no less than 20 % by mass.
For `COc1cc(C2c3c(ccc4cc(O)ccc34)Oc3ccc4cc(O)ccc4c32)cc(I)c1O` [A-3], the “10% thermal weight loss temperature” value in series [1] was no less than 400 °C. Also, in series [2], the “solubility in PGME” value is listed as no less than 20 % by mass; the “solubility in PGME, Evaluation” value was “A (Evaluation A: 20% by mass or more)”; the “solubility in PGMEA, Evaluation” value is reported as “A (Evaluation A: 20% by mass or more)”; the “solubility in PGMEA” value is recorded as no less than 20 % by mass.
Regarding `Oc1ccc2ccc3c(c2c1)C(c1ccc(I)o1)c1c(ccc2ccc(O)cc12)O3` [B-4], the “10% thermal weight loss temperature” value in series [1] is no less than 400 °C. Further, in series [2], the “solubility in PGME” value is no less than 20 % by mass; the “solubility in PGME, Evaluation” value is listed as “A (Evaluation A: 20% by mass or more)”; the “solubility in PGMEA, Evaluation” value is on record as “A (Evaluation A: 20% by mass or more)”; the “solubility in PGMEA” value is listed as no less than 20 % by mass.
As for `COc1cc(C2c3c(ccc4ccc(O)cc34)Oc3ccc4ccc(O)cc4c32)cc(I)c1O` [B-3], in series [1], the “10% thermal weight loss temperature” value is no less than 400 °C. In series [2], the “solubility in PGME” value is reported as no less than 20 % by mass; the “solubility in PGME, Evaluation” value was “A (Evaluation A: 20% by mass or more)”; the “solubility in PGMEA, Evaluation” value was “A (Evaluation A: 20% by mass or more)”; the “solubility in PGMEA” value was no less than 20 % by mass.
As for `Oc1ccc2c3c(ccc2c1)Oc1ccc2cc(O)ccc2c1C3c1ccc(I)cc1` [A-2], the “10% thermal weight loss temperature” value in series [1] is no less than 400 °C. In series [2], the “solubility in PGME” value is no less than 20 % by mass; the “solubility in PGME, Evaluation” value is recorded as “A (Evaluation A: 20% by mass or more)”; the “solubility in PGMEA, Evaluation” value is “B (Evaluation B: 10% by mass or more and less than 20% by mass)”.
Take `Oc1ccc2c3c(ccc2c1)Oc1ccc2cc(O)ccc2c1C3c1ccc(I)o1` [A-4]: in series [1], the “10% thermal weight loss temperature” value was no less than 400 °C. Besides, in series [2], the “solubility in PGME” value is no less than 20 % by mass; the “solubility in PGME, Evaluation” value is listed as “A (Evaluation A: 20% by mass or more)”; the “solubility in PGMEA, Evaluation” value is “A (Evaluation A: 20% by mass or more)”; the “solubility in PGMEA” value is given as no less than 20 % by mass.
